The results in this text go back to patent US5945404A, “21-Substituted steroid compound” (priority 1993, dated 1999).

Where two headings read alike, the source gives them in different places.

Common to all, as to format: in vivo, male Sprague-Dawley rats
In one data set the test system is granuloma. As to the kind of experiment: Inhibitory Effects on Granuloma Growth (Paper Disk Method). The following applies: Rattus norvegicus, topical, 168 h, ointment 0.1%, 50 mg once a day, 7 days. Here is the method: (§1) Ointment to be tested was prepared usign white soft paraffin as the base and containing dexamethasone at 0.1% concentration.
Groups of 5 male Sprague-Dawley rats each weighing 150-170 g were used. Under ether anesthesia, the dorsum of animals was closely clipped, and medianly incised. After each one pre-weighed paper disk (8-mm diameter, 1-mm thick, weighing about 30 mg; Toyo-Roshi filter paper) was inserted subcutaneously into both sides of the dorsal incision, the incision was sutured. In order to prevent bacterial infection, penicillin G potassium salt (2,000 units) per rat was intramascularly injected after the surgery. Base or ointment to be tested (50 mg each) was rubbed carefully into the skin over the paper disk inserted site, for 30 seconds once a day for the duration of 7 days. Rats were slipped plastic cangs on to prevent them from licking the drug applied sites. On the 8th day of the test, rats were sacrificed under ether anesthesia, and granulomas were carefully excised. Granulomas were dried at 40° C. for 24 h, and their dry weights were recorded.
Inhibitory effects of dexamethasone derivatives on the weight increase of granuloma of experimental animals as compared with those of control animals are shown as per cent of inhibition ov er the control in Table 1. Figures wihth asterisks in the table indicate signfiicant difference. The same will be applied to the following other tables.

Data set [1] in a line: Effects of 7-day Ointment Rubbing on Organ Weights. The following applies: Table 7, 7-day rubbing, 100 mg ointment once daily; for Leukocyte count: normal animal 0.0. Here is the method:
as §1
Groups of 5 male Sprague-Dawley rats each weighing 150-170 g were used. Under ether anesthesia, the dorsum of animals were closely clipped, and test drug (100 mg) was carefully rubbed in the clipped dorsal area for 30 seconds. Rats were slipped on plastic cang to prevent them from licking the drug-applied area. After the drug rubbing once daily for 7 days, on the 8th day rats were anesthetized with ether. Blood samples were collected, and thymus, spleen, and adrenal were excised and measured their wet weights. Furthermore, leukocyte number was counted with the blood samples collected. Results were expressed as the per cent of change of body weight on the 8th day as compared with that on the 1st day of rubbing. Similarly, the per cent of change in weights of thymus, spleen and adrenal on the 8th day as compared with that of the control animlas were shown.

Data set [2] relates to croton oil-induced granuloma. As to the kind of experiment: Croton Oil-induced Granuloma (granuloma pouch). The following applies: Rattus norvegicus, 168 h, 7 days; for inhibition in vivo at 0.01 mg: 0.01 mg/rat; for inhibition in vivo at 0.1 mg: 0.1 mg/rat; for inhibition in vivo at 1 mg: 1.0 mg/rat. The procedure: Groups of 5 male Sprague-Dawley rats each weighing 160-180 g were used. Under ether anesthesia, the dorsum of animals was closely clipped, and air sac was formed by injecting air (20 ml) subcutaneously. Next day cotton seed oil containing 1% croton oil was injected into the air sac. Drugs to be tested were suspended in the cotton seed oil containing 1% croton oil, and administered. After 7 days, the blood was taken from the animal under ether anesthesia. Then, the granuloma pouch fluid (exudate) was collected, and the fluid volume was measured. The pouch wall formed around granuloma and thymus were also excised and weighed.

Where [3] appears, read: read-out: Weight of granuloma, per cent of change of the controls, rat, paper disk.
[4] abbreviates: rat, paper disk, read-out: Weight of granuloma, per cent of change of the controls.
The mark [5] stands for this setting: read-out: Effects on granuloma weight, per cent of inhibition over the control.
Where [6] appears, read: read-out: Effects on pouch fluid (exudate) volume, per cent of inhibition over the control.

Turning to `C[C@@H]1C[C@H]2[C@@H]3CCC4=CC(=O)C=C[C@]4(C)[C@@]3(F)[C@@H](O)C[C@]2(C)[C@@]1(O)C(=O)CO[C@@H]1O[C@H](CO)[C@@H](O)[C@H](O)[C@H]1O` [Compound 5β, glucosyldexamethasone], the change in vivo at 0.1 %, 50 mg with granuloma (setting [3]) is -47.4 ± 2.9%. Also, in data set [1], the “Adrenal weight, per cent of change vs control animals” value (shortened to “Adrenal weight, per cent of change”) is listed as -49.6 ± 3.2 per cent; the “Body weight, per cent of change on the 8th day vs 1st day” value (from here on “Body weight, per cent of change”) came to 0.7 ± 1.4 per cent; the “Spleen weight, per cent of change vs control animals” value (“Spleen weight, per cent of change” below) is -56.0 ± 1.6 per cent; the “Thymus weight, per cent of change vs control animals” value (shortened to “Thymus weight, per cent of change”) is recorded as -85.7 ± 2.6 per cent. Also, in data set [1], the Leukocyte count was -46.6 ± 8.2.

Turning to `C[C@@H]1C[C@H]2[C@@H]3CCC4=CC(=O)C=C[C@]4(C)[C@@]3(F)[C@@H](O)C[C@]2(C)[C@@]1(O)C(=O)CO[C@H]1O[C@H](CO)[C@H](O)[C@H](O)[C@H]1O` [Compound 15α, galactosyldexamethasone], the change in vivo at 0.1 %, 50 mg in the data set on granuloma (setting [3]) was -39.5 ± 1.8%. Moreover, in data set [1], the “Adrenal weight, per cent of change” value was -48.3 ± 2.9 per cent; the “Body weight, per cent of change” value is reported as 8.3 ± 1.0 per cent; the “Spleen weight, per cent of change” value is reported as -35.7 ± 2.3 per cent; the “Thymus weight, per cent of change” value is given as -82.2 ± 3.3 per cent. Besides, in data set [1], the Leukocyte count was -22.6 ± 7.4.

`C[C@@H]1C[C@H]2[C@@H]3CCC4=CC(=O)C=C[C@]4(C)[C@@]3(F)[C@@H](O)C[C@]2(C)[C@@]1(O)C(=O)CO[C@@H]1O[C@H](CO)[C@H](O)[C@H](O)[C@H]1O` [Compound 15β, galactosyldexamethasone]: the change in vivo at 0.1 %, 50 mg in the data set on granuloma (setting [3]) was -41 ± 2.6%. Moreover, in data set [1], the “Adrenal weight, per cent of change” value is recorded as -47.1 ± 1.9 per cent; the “Body weight, per cent of change” value is reported as 4.6 ± 0.9 per cent; the “Spleen weight, per cent of change” value is -43.2 ± 2.1 per cent; the “Thymus weight, per cent of change” value is -86.0 ± 1.4 per cent. Also, the Leukocyte count in data set [1] was -37.0 ± 6.9.

Turning to `CC(=O)N[C@H]1[C@H](OCC(=O)[C@@]2(O)[C@H](C)C[C@H]3[C@@H]4CCC5=CC(=O)C=C[C@]5(C)[C@@]4(F)[C@@H](O)C[C@@]32C)O[C@H](COC(C)=O)[C@@H](OC(C)=O)[C@@H]1OC(C)=O` [Compound 34β, N-acetylglucosaminyldexamethasone], the change in vivo at 0.1 %, 50 mg with granuloma (setting [4]) is -21.3 ± 3.9%.

Take `CC(=O)N[C@H]1[C@H](OCC(=O)[C@@]2(O)[C@H](C)C[C@H]3[C@@H]4CCC5=CC(=O)C=C[C@]5(C)[C@@]4(F)[C@@H](O)C[C@@]32C)O[C@H](CO)[C@@H](O)[C@@H]1O` [Compound 35β, β-N-acetylglucosaminyldexamethasone]: in the data set on granuloma (setting [4]), the change in vivo at 0.1 %, 50 mg was -21.9 ± 4.2%.

Take `CC(=O)N[C@H]1[C@H](OCC(=O)[C@@]2(O)[C@H](C)C[C@H]3[C@@H]4CCC5=CC(=O)C=C[C@]5(C)[C@@]4(F)[C@@H](O)C[C@@]32C)O[C@H](COC(C)=O)[C@H](OC(C)=O)[C@@H]1OC(C)=O` [Compound 44β]: the change in vivo at 0.1 %, 50 mg in the data set with granuloma (setting [4]) was -16.5 ± 3%.

Consider `CC(=O)N[C@H]1[C@H](OCC(=O)[C@@]2(O)[C@H](C)C[C@H]3[C@@H]4CCC5=CC(=O)C=C[C@]5(C)[C@@]4(F)[C@@H](O)C[C@@]32C)O[C@H](CO)[C@H](O)[C@@H]1O` [Compound 45β, N-acetylgalactosaminyldexamethasone], for which the change in vivo at 0.1 %, 50 mg with granuloma (setting [4]) was -28.1 ± 3.5%.

On to `COC(=O)[C@H]1O[C@@H]2OC(C)(OCC(=O)[C@@]3(O)[C@H](C)C[C@H]4[C@@H]5CCC6=CC(=O)C=C[C@]6(C)[C@@]5(F)[C@@H](O)C[C@@]43C)O[C@@H]2[C@@H](OC(C)=O)[C@@H]1OC(C)=O` (stereo partly drawn) [Compound 54'], for which the change in vivo at 0.1 %, 50 mg in the data set on granuloma (setting [4]) is -44.8 ± 2.4%.

For `COC(=O)[C@H]1O[C@@H](OCC(=O)[C@@]2(O)[C@H](C)C[C@H]3[C@@H]4CCC5=CC(=O)C=C[C@]5(C)[C@@]4(F)[C@@H](O)C[C@@]32C)[C@H](OC(C)=O)[C@@H](OC(C)=O)[C@@H]1OC(C)=O` [Compound 54β], the change in vivo at 0.1 %, 50 mg in the data set on granuloma (setting [4]) was -35.1 ± 2.8%.

Regarding `C[C@@H]1C[C@H]2[C@@H]3CCC4=CC(=O)C=C[C@]4(C)[C@@]3(F)[C@@H](O)C[C@]2(C)[C@@]1(O)C(=O)CO[C@@H]1O[C@H](C(=O)O)[C@@H](O)[C@H](O)[C@H]1O` [Compound 55β, β-glucuronyldexamethasone], in the data set with granuloma (setting [4]), the change in vivo at 0.1 %, 50 mg is -37.4 ± 7.1%.

In the case of `COC(=O)[C@H]1O[C@@H](OCC(=O)[C@@]2(O)[C@H](C)C[C@H]3[C@@H]4CCC5=CC(=O)C=C[C@]5(C)[C@@]4(F)[C@@H](O)C[C@@]32C)[C@H](OC(=O)c2ccc(C)cc2)[C@@H](OC(=O)c2ccc(C)cc2)[C@@H]1OC(=O)c1ccc(C)cc1` [Compound 59β], in the data set on granuloma (setting [4]), the change in vivo at 0.1 %, 50 mg is -7.7 ± 6.8%.

`COC(=O)[C@H]1O[C@@H]2OC(C)(OCC(=O)[C@@]3(O)[C@H](C)C[C@H]4[C@@H]5CCC6=CC(=O)C=C[C@]6(C)[C@@]5(F)[C@@H](O)C[C@@]43C)O[C@@H]2[C@@H](OC(C)=O)[C@H]1OC(C)=O` (stereo partly drawn) [Compound 64']: in the data set with granuloma (setting [4]), the change in vivo at 0.1 %, 50 mg is -41.3 ± 2.3%.

Turning to `COC(=O)[C@H]1O[C@@H](OCC(=O)[C@@]2(O)[C@H](C)C[C@H]3[C@@H]4CCC5=CC(=O)C=C[C@]5(C)[C@@]4(F)[C@@H](O)C[C@@]32C)[C@H](OC(C)=O)[C@@H](OC(C)=O)[C@H]1OC(C)=O` [Compound 64β], in the data set on granuloma (setting [4]), the change in vivo at 0.1 %, 50 mg was -32.5 ± 0.5%.

Turning to `C[C@@H]1C[C@H]2[C@@H]3CCC4=CC(=O)C=C[C@]4(C)[C@@]3(F)[C@@H](O)C[C@]2(C)[C@@]1(O)C(=O)CO[C@@H]1O[C@H](C(=O)O)[C@H](O)[C@H](O)[C@H]1O` [Compound 65β, β-galacturonyldexamethasone], in the data set on granuloma (setting [4]), the change in vivo at 0.1 %, 50 mg was -33 ± 3.3%.

With `COC(=O)[C@H]1O[C@@H](OCC(=O)[C@@]2(O)[C@H](C)C[C@H]3[C@@H]4CCC5=CC(=O)C=C[C@]5(C)[C@@]4(F)[C@@H](O)C[C@@]32C)[C@H](OC(=O)c2ccc(C)cc2)[C@@H](OC(=O)c2ccc(C)cc2)[C@H]1OC(=O)c1ccc(C)cc1` [Compound 69β], in the data set on granuloma (setting [4]), the change in vivo at 0.1 %, 50 mg came out at 0.7 ± 2.4%.

`Cc1ccc(C(=O)OC[C@H]2O[C@@H](OCC(=O)[C@@]3(O)CC[C@H]4[C@@H]5C[C@H](F)C6=CC(=O)C=C[C@]6(C)[C@@]5(F)[C@@H](O)C[C@@]43C)[C@H](OC(=O)c3ccc(C)cc3)[C@@H](OC(=O)c3ccc(C)cc3)[C@@H]2OC(=O)c2ccc(C)cc2)cc1` [Compound 105β, glucosyldiflupredonate (p-toluoyl derivative)]: the change in vivo at 0.1 %, 50 mg in the data set on granuloma (setting [4]) is -1.2 ± 5.7%. In data set [2] (setting [5]), the inhibition in vivo at 0.01 mg was -5.9 ± 10.9%, the inhibition in vivo at 0.1 mg stood at 22.1 ± 3.7% and the inhibition in vivo at 1 mg was 53 ± 6.2%. Further, in data set [2] (setting [6]), the inhibition in vivo at 0.01 mg was -8.1 ± 9.4%, the inhibition in vivo at 0.1 mg came to 24.8 ± 8.8% and the inhibition in vivo at 1 mg stood at 76.4 ± 4.3%.

On to `Cc1ccc(C(=O)OC[C@H]2O[C@@H](OCC(=O)[C@@]3(O)[C@@H](C)C[C@H]4[C@@H]5C[C@H](F)C6=CC(=O)C=C[C@]6(C)[C@@]5(F)[C@@H](O)C[C@@]43C)[C@H](OC(=O)c3ccc(C)cc3)[C@@H](OC(=O)c3ccc(C)cc3)[C@@H]2OC(=O)c2ccc(C)cc2)cc1` [Compound 107β, glucosyldiflorasone (p-toluoyl derivative)], for which, in the data set on granuloma (setting [4]), the change in vivo at 0.1 %, 50 mg is -6.3 ± 5.5%. Moreover, in data set [2] (setting [5]), the inhibition in vivo at 0.01 mg is -21.2 ± 19.2%, the inhibition in vivo at 0.1 mg was -23.3 ± 21.4% and the inhibition in vivo at 1 mg was determined as 28.1 ± 12.5%. In data set [2] (setting [6]), the inhibition in vivo at 0.01 mg is -28.5 ± 18.8%, the inhibition in vivo at 0.1 mg is -30.9 ± 20.9% and the inhibition in vivo at 1 mg amounted to 28.8 ± 15.2%.

Turning to `Cc1ccc(C(=O)OC[C@H]2O[C@@H](OCC(=O)[C@H]3[C@H](C)C[C@H]4[C@@H]5C[C@H](F)C6=CC(=O)C=C[C@]6(C)[C@@]5(F)[C@@H](O)C[C@@]43C)[C@H](OC(=O)c3ccc(C)cc3)[C@@H](OC(=O)c3ccc(C)cc3)[C@@H]2OC(=O)c2ccc(C)cc2)cc1` [Compound 109β, Glucosyldiflucortolone (p-toluoyl derivative)], the change in vivo at 0.1 %, 50 mg in the data set with granuloma (setting [4]) was -0.2 ± 3.7%.
